Source: patent US20210186947A1, “TOMM6-INTERACTING EXTRACTS AND COMPOUNDS FOR USE IN THE TREATMENT AND PROPHYLAXIS OF NERVOUS SYSTEM DISEASES, ATHEROSCLEROSIS, HEPATITIS B INFECTION AND HUMAN PAPILLOMA VIRUS (HPV) INFECTION” (ETH ZURICH, priority 2018, published 2021)

What was measured:
[1] = biological target: T1, Tomm6 (Mitochondrial import receptor subunit TOMM6 homolog) (Mus musculus, UniProt Q9CQN3); test: Identification of Compound-1-interacting hippocampal proteins by co-migration in SDS-PAGE and nano-LC-ESI-MS/MS; assay type: binding, Tg2576 mice; details: solubilisate of hippocampal proteins supplemented with 10 microM Compound-1
T1 construct: hippocampi were isolated from 5-10 aged Tg2576 mice, pulverized under liquid nitrogen and solubilized; from tissue; host or cells: hippocampus of Tg2576 mice
Protocol: To isolate Compound-1-interacting hippocampal proteins, hippocampi were isolated from 5-10 aged Tg2576 mice, pulverized under liquid nitrogen and solubilized for 30 min at 4° C. in solubilization buffer (1% sodium deoxycholate, 0.05% SDS, 0.05% Tween 20 in PBS, pH 7.4, supplemented with protease inhibitors). Insoluble material was removed by centrifugation. The supernatant was diluted 1:5 in PBS (supplemented with protease inhibitors). To this solubilisate, Compound-1 was added at a concentration of 10 μM. Buffer exchange into 20 mM Tris pH 7.4 was performed by centrifugation over Amicon Ultra Centrifugal Filter Units (MWCO 3 kDa; EMD Millipore Merck KGaA, Darmstadt, Germany). The concentrated proteins were dissolved in Laemmli sample buffer (Bio-Rad GmbH, Munchen, Germany) supplemented with mercaptoethanol (355 mM) and subjected to 8% SDS-PAGE under reducing conditions. Compound-1-interacting proteins were identified by co-migration, protein bands were cut and subjected to nano-LC-ES-MS/MS (performed by Proteome Factory AG, Berlin, Germany). Proteins were identified using MS/MS ion search of the Mascot search engine (Matrix Science, London, England) and nr protein database (National Center for Biotechnology Information, Bethesda, MD). […]

[2] = system: HBsAg (hepatitis B virus major surface antigen); test: HBsAg aggregation in yeast, immunoblot detection of HBsAg; assay type: cell-based; details: alizarin 10 microg/ml and 1 microg/ml (FIG. 16D)
Description: Recombinant HBsAg cDNA (synthesized by GeneScript, Piscataway, N.J., USA) was inserted into the expression vector p42K-TEF (D3011001-1 Dualsystems Biotech AG, Zurich). Yeast transformants were selected in the presence of G418 in the yeast growth medium (YPD; Bacto-yeast extract 10 g/L, Bacto-peptone 20 g/L and D-Glucose […]). Yeast (Saccharomyces cerevisae) strain INVSc1 was used (Invitrogen GmbH, Nr. C810-00). After 3-4 days of cultivation to allow for protein expression, yeast cells were harvested by centrifugation, followed by washing with ice-cold PBS. The yeast cell pellet was immediately frozen at −70° C. Proteins were extracted for 30 min. at 4° C. with solubilization buffer (1% sodium deoxycholate, 0.1% SDS, 0.1% NP40, 5 mM EDTA, 50 mM Tris, pH 8.0) supplemented with protease/phosphatase inhibitors (Cat. No. P8349, and/or PPC1010, Sigma-Aldrich, St. Louis, Mo., USA). […] Protein were separated by urea-containing SDS-PAGE (7.5-10%) under reducing conditions, transferred to PVDF membranes by electrophoretic protein transfer in a tank transfer cell (Mini Trans-Blot cell, Bio-Rad GmbH, Munchen, Germany), and transferred HBsAg proteins were detected in immunoblot with HBsAg-specific antibodies raised in rabbit against an N-terminal epitope of HBsAg, or by a monoclonal HBsAg antibody produced in mouse (SAB4700767, Sigma-Aldrich, St. Louis, Mo., USA). […]

T1 sequence (Q9CQN3 whole entry): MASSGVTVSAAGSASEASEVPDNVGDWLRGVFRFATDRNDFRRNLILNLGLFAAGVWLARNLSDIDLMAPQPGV

`O=C1c2ccccc2C(=O)c2c1ccc(O)c2O` [Compound-1, 1,2-dihydroxyanthraquinone] was tested, and the “interaction with Tomm6 (co-migration)” value [1] was “major Compound-1-interacting protein” and the “aggregation and assembly of HBsAg” value [2] was “inhibited the aggregation and assembly of HBsAg”.
